{"source": "patent US20030162732A1", "about": "“Combination of aminosugars and cysteine or cysteine derivatives” (Astion Development A/S, priority 2001, published 2003)", "key": {"[1]": {"test_system": "carrageenin-induced paw oedema", "experiment": "carrageenin-induced paw oedema test in the rat", "format": "in vivo", "settings": "day 0", "source_text": "The objective of this study is to assess the effect of complexes or compositions of the invention in the carrageenin-induced paw oedema test in the rat, a commonly employed method for screening and evaluation of antiinflammatory drugs. Carrageenin, the phlogistic agent of choice for testing antiinflammatory drugs, is a mucopolysaccharide derived from Irish sea moss, Chondrus. Ibuprofen is used as a positive control.\nThe test article is the complex of the invention prepared according to example 105 (Compound 105 in the following). Compound 105 and Ibuprofen are obtained from Astion A/S, Denmark.\nThe test article is dissolved in milli-Q water. 0.9% NaCl solution is used as vehicle.\nThe study is performed in male SPF Sprague Dawley rats of the stock Mol:SPRD from M & B A/S, Tornbjergvej 40, DK-4623 Lille Skensved, Denmark. At start of the acclimatisation period the rats are in the weight range of 80-100 g.\nAll doses of Compound 105 are administered intraperitoneally in volumes of 20 ml per kg body weight, once daily on day −2 and −1 to groups 2,3 and 4 only and on day 0 to groups 2-6, 0-5 minutes before injection of carrageenin into the foot on day 0. Ibuprofen and vehicle are administered orally by gavage in volumes of 20 ml/kg body weight on day 0, 0-5 minutes before injection of the carrageenin into the foot.\nCarrageenin (from Sigma) is prepared as a 1% suspension in sterile 0.9% NaCl-solution. A volume of 0.1 ml is injected through a 25-gauge needle into the plantar tissue of the right hind paw of the rats within 5 minutes after treatment with the test articles.\nImmediately before the dosing and carrageenin injection and three and five hours later the foot volume is measured using a plethysmometer LE 7500 from Letica Scientific Instruments, Spain."}, "[2]": {"test_system": "tendonitis of the arm; osteoarthritis of the hips and knees; knee injury involving cartilage damage", "experiment": "small preliminary clinical investigation, three persons, oral aqueous solution of compound 105", "format": "in vivo, human", "settings": "person, normal doses, patient history", "protocol": "In a small preliminary clinical investigation three persons administered a pharmaceutical composition according to the invention. The composition was an aqueous solution (100 mg/ml) of compound 105, which is the complex of the invention prepared according to example 105.\nOne patient was […] and had suffered from tendonitis of the arm for eight months. The symptoms were chronic muscle pain and some degree of immobility of the arm.\nThe composition of the invention was administered orally corresponding to 3000 mg compound 105 twice a day. […] After a further week of treatment the treatment was discontinued.\nAnother patient was […] and had suffered from osteoarthritis of the hips and knees for ten years. For some periods the patient had been treated with celecoxib, paracetamol and/or codein to control the pain. The main symptoms were pain and immobility of the joints. The composition of the invention was administered orally corresponding to 3000 mg compound 105 twice a day.\nThe symptoms were pain and immobility of the knee joint. The composition of the invention was administered orally corresponding to 3000 mg compound 105 twice a day. […] During the next two days the symptoms started reappearing."}}, "data": [{"smiles": "CC(C)Cc1ccc(C(C)C(=O)O)cc1", "note": "(centres unmarked) [Ibuprofen]", "values": [{"measurement": "inhibition of the paw oedema", "setting": "[1]; after 5 hours, 50 mg/kg orally by gavage", "result": 77, "unit": "%"}, {"measurement": "inhibition of the paw oedema", "setting": "[1]; after 5 hours, 150 mg/kg orally by gavage", "result": 97, "unit": "%"}, {"measurement": "inhibition of the paw oedema", "setting": "[1]; after three hours, 50 mg/kg orally by gavage", "result": 37, "unit": "%"}, {"measurement": "inhibition of the paw oedema", "setting": "[1]; after three hours, 150 mg/kg orally by gavage", "result": 57, "unit": "%"}, {"measurement": "symptomatic effect of earlier treatment", "setting": "[2]", "result": "limited symptomatic effect"}]}]}
